Data reported in ChEMBL document CHEMBL2073968, “Multidrug resistance protein 4 (MRP4/ABCC4) mediates efflux of bimane-glutathione” (Int J Biochem Cell Biol, 2004).

Legend:
[1] = molecular target: T1, ATP-binding cassette sub-family C member 4 (Homo sapiens, UniProt O15439); experiment: TP_TRANSPORTER: inhibition of E217betaG uptake in membrane vesicles from MRP4-expressing Sf9 cells; format: functional, cell membranes, Membrane vesicle
T1 sequence (O15439 whole entry): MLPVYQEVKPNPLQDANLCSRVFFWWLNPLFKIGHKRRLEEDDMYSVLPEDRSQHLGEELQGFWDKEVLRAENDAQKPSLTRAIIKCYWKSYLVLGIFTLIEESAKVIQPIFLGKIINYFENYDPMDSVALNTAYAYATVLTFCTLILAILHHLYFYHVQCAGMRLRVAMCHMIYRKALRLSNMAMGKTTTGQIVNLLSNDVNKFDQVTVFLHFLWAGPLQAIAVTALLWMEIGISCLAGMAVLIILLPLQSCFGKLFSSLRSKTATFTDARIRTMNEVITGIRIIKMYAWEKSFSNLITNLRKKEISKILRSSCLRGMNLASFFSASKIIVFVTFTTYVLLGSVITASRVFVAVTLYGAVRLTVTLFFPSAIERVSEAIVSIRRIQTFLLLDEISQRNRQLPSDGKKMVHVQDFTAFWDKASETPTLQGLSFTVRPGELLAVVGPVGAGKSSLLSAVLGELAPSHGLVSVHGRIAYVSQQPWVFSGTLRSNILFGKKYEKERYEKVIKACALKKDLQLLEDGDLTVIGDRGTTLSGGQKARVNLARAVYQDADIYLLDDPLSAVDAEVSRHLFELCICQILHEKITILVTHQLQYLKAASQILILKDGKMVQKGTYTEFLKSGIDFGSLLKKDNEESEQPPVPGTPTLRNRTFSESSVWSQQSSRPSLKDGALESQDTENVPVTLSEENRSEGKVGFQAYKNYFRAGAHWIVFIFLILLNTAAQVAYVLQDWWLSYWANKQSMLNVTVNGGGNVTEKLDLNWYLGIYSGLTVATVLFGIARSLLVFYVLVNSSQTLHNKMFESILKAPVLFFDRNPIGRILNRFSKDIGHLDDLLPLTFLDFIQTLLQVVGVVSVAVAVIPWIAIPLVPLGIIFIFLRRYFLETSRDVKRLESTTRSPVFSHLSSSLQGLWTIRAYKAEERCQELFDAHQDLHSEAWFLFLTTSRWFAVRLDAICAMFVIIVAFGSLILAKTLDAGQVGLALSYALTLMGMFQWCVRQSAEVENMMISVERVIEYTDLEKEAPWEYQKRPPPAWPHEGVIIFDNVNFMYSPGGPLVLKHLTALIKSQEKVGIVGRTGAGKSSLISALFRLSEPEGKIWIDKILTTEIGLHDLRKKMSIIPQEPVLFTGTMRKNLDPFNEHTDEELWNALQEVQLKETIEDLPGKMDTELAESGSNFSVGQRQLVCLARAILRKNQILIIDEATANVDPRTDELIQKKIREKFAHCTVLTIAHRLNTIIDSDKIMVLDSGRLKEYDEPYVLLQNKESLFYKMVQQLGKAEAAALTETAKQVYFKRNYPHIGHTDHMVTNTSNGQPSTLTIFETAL

[2] = molecular target: T2, MRP4 (ATP-binding cassette sub-family C member 4) (Homo sapiens, UniProt O15439); experiment: TP_TRANSPORTER: inhibition of bimane-GS efflux in the presence of 6-thioguanine at a concentration of 100uM in MRP4-expressing HepG2 cells; format: functional, cell-based; parameters: scale not given: the % may be the effect or the level left; details: probe bimane-GS, read-out: Activity
T2 sequence (O15439 whole entry): T1 sequence (O15439 whole entry)

[3] = molecular target: T2, MRP4 (ATP-binding cassette sub-family C member 4); experiment: TP_TRANSPORTER: inhibition of bimane-GS efflux in the presence of Methotrexate at a concentration of 100uM in MRP4-expressing HepG2 cells; format: functional, cell-based; parameters: scale not given: the % may be the effect or the level left; details: probe bimane-GS, read-out: Activity
[4] = molecular target: T1, ATP-binding cassette sub-family C member 4; experiment: TP_TRANSPORTER: inhibition of bimane-GS efflux in the presence of Benzbromarone at a concentration of 5uM in MRP4-expressing HepG2 cells; format: functional, cell-based; parameters: scale not given: the % may be the effect or the level left; details: hepg2, 5 µM
[5] = molecular target: T1, ATP-binding cassette sub-family C member 4; experiment: TP_TRANSPORTER: efflux in MRP4-expressing HepG2 cells; format: functional, cell-based
[6] = molecular target: T1, ATP-binding cassette sub-family C member 4; experiment: TP_TRANSPORTER: inhibition of bimane-GS efflux in the presence of 1-chloro-2,4-dinitrobenzen(2,4-dinitrophenyl-glutathione) at a concentration of 100uM in MRP4-expressing HepG2 cells; format: functional, cell-based; parameters: scale not given: the % may be the effect or the level left; details: hepg2, 100 µM
[7] = molecular target: T1, ATP-binding cassette sub-family C member 4; experiment: TP_TRANSPORTER: inhibition of bimane-GS efflux in the presence of Indomethacin at a concentration of 50uM in MRP4-expressing HepG2 cells; format: functional, cell-based; parameters: scale not given: the % may be the effect or the level left; details: hepg2, 50 µM

C[C@]12CC[C@H](OS(=O)(=O)O)CC1=CC[C@@H]1[C@@H]2CC[C@]2(C)C(=O)CC[C@@H]12 [PRASTERONE SULFURIC ACID]
IC50 [1]: 3 µM

Nc1nc2nc[nH]c2c(=S)[nH]1 [THIOGUANINE]
activity at 100 µM [2]: 53%

CN(Cc1cnc2nc(N)nc(N)c2n1)c1ccc(C(=O)N[C@@H](CCC(=O)O)C(=O)O)cc1 [METHOTREXATE]
activity at 100 µM [3]: 53%

CCc1oc2ccccc2c1C(=O)c1cc(Br)c(O)c(Br)c1 [BENZBROMARONE]
Activity [4]: 60%

Cc1c(C)n2c(CSC[C@H](NC(=O)CC[C@H](N)C(=O)O)C(=O)CNC(=O)O)c(C)c(=O)n2c1=O [Bimane-glutathione]
Activity [5]: substrate []

NC(CCC(=O)NC(CSc1ccc([N+](=O)[O-])cc1[N+](=O)[O-])C(=O)NCC(=O)O)C(=O)O.O=[N+]([O-])c1ccc(Cl)c([N+](=O)[O-])c1 (configuration not stated)
Activity [6]: 27%

COc1ccc2c(c1)c(CC(=O)O)c(C)n2C(=O)c1ccc(Cl)cc1 [INDOMETHACIN]
Activity [7]: 74%
